Data as given in PubChem BioAssay AID2060483 (Molecular Pharmacology Branch, DTP, NCI, 2025).

System: K24384-001-R-PDC complex spheroids, viability
Assay: Anticancer human tumor K24384-001-R-PDC patient-derived pancreatic adenocarcinoma cell line growth inhibition [GQUAD]
Details: for IC50: curve of first compound; for viability, T/C: stronger effect = lower value; active = viability on the fitted dose curve at most 10% of control; inactive = the rest
In short: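 Multi-cell-type spheroids of tumor cells with HUVEC and mesenchymal stem cells, treated with drug combinations. Concentrations descend in half-log steps from near clinical Cmax, or from 10 microM where Cmax is unknown; viability read-out.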

[1] = second compound 0.0316 µM, first compound 0.0316 µM
[2] = second compound 0.0316 µM, first compound 0.1 µM
[3] = second compound 0.0316 µM, first compound 0.316 µM
[4] = second compound 0.0316 µM, first compound 1 µM
[5] = second compound 0.0316 µM, first compound 3.16 µM
[6] = second compound 0.0316 µM, first compound 10 µM
[7] = second compound 0.1 µM, first compound 0.0316 µM
[8] = second compound 0.1 µM, first compound 0.1 µM
[9] = second compound 0.1 µM, first compound 0.316 µM
[10] = second compound 0.1 µM, first compound 1 µM
[11] = second compound 0.1 µM, first compound 3.16 µM
[12] = second compound 0.1 µM, first compound 10 µM
[13] = second compound 0.316 µM, first compound 0.0316 µM
[14] = second compound 0.316 µM, first compound 0.1 µM
[15] = second compound 0.316 µM, first compound 0.316 µM
[16] = second compound 0.316 µM, first compound 1 µM
[17] = second compound 0.316 µM, first compound 3.16 µM
[18] = second compound 0.316 µM, first compound 10 µM
[19] = second compound 1 µM, first compound 0.0316 µM
[20] = second compound 1 µM, first compound 0.1 µM
[21] = second compound 1 µM, first compound 0.316 µM
[22] = second compound 1 µM, first compound 1 µM
[23] = second compound 1 µM, first compound 3.16 µM
[24] = second compound 1 µM, first compound 10 µM
[25] = second compound 3.16 µM, first compound 0.0316 µM
[26] = second compound 3.16 µM, first compound 0.1 µM
[27] = second compound 3.16 µM, first compound 0.316 µM
[28] = second compound 3.16 µM, first compound 1 µM
[29] = second compound 3.16 µM, first compound 3.16 µM
[30] = second compound 3.16 µM, first compound 10 µM
[31] = second compound 10 µM, first compound 0.0316 µM
[32] = second compound 10 µM, first compound 0.1 µM
[33] = second compound 10 µM, first compound 0.316 µM
[34] = second compound 10 µM, first compound 1 µM
[35] = second compound 10 µM, first compound 3.16 µM
[36] = second compound 10 µM, first compound 10 µM
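Note: spheroids exposed to compounds for seven days.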

C=CCn1c(=O)c2cnc(Nc3ccc(N4CCN(C)CC4)cc3)nc2n1-c1cccc(C(C)(C)O)n1 + CN(C)c1ccc(Nc2c3ccc(NC(=O)CCN4CCCC4)cc3nc3cc(NC(=O)CCN4CCCC4)ccc23)cc1
266 nM: IC50 (second compound 0.1 µM)
392 nM: IC50 (second compound 0.0316 µM)
275 nM: IC50 (second compound 1 µM)
236 nM: IC50 (second compound 0.316 µM)
inactive: viability, T/C [1] 85.5% | viability, T/C [2] 81% | viability, T/C [3] 57.3% | viability, T/C [4] 18% | viability, T/C [5] 15.9% | viability, T/C [6] 17.9% | viability, T/C [7] 76.2% | viability, T/C [8] 68.9% | viability, T/C [9] 47% | viability, T/C [10] 15.6% | viability, T/C [11] 14% | viability, T/C [12] 14.8% | viability, T/C [13] 80.2% | viability, T/C [14] 86.7% | viability, T/C [15] 38.6% | viability, T/C [16] 16.3% | viability, T/C [17] 12% | viability, T/C [18] 14.5% | viability, T/C [19] 76.7% | viability, T/C [20] 83.3% | viability, T/C [21] 45.9% | viability, T/C [22] 19.1% | viability, T/C [23] 12.2% | viability, T/C [24] 18% | viability, T/C [25] 84.2% | viability, T/C [26] 80.3% | viability, T/C [27] 39.3% | viability, T/C [28] 19.3% | viability, T/C [29] 16.3% | viability, T/C [30] 13.6% | viability, T/C [31] 63.5% | viability, T/C [32] 64.8% | viability, T/C [33] 44.5% | viability, T/C [34] 20% | viability, T/C [35] 16.9% | viability, T/C [36] 13.1%
229 nM: IC50 (second compound 10 µM)
235 nM: IC50 (second compound 3.16 µM)

CC(C)(O)C1CCC(Nc2ccc3ncc(-c4cccc(C(F)(F)F)c4)n3n2)CC1 (stereo not drawn) + CN(C)c1ccc(Nc2c3ccc(NC(=O)CCN4CCCC4)cc3nc3cc(NC(=O)CCN4CCCC4)ccc23)cc1
1890 nM: IC50 (second compound 3.16 µM)
2160 nM: IC50 (second compound 1 µM)
2380 nM: IC50 (second compound 0.316 µM)
1240 nM: IC50 (second compound 10 µM)
inactive: viability, T/C [1] 106% | viability, T/C [2] 106% | viability, T/C [3] 102% | viability, T/C [4] 84.6% | viability, T/C [5] 37.5% | viability, T/C [6] 37.2% | viability, T/C [7] 105% | viability, T/C [8] 104% | viability, T/C [9] 96.4% | viability, T/C [10] 79% | viability, T/C [11] 30.5% | viability, T/C [12] 33.4% | viability, T/C [13] 104% | viability, T/C [14] 98.1% | viability, T/C [15] 98% | viability, T/C [16] 94.6% | viability, T/C [17] 35.4% | viability, T/C [18] 34.3% | viability, T/C [19] 106% | viability, T/C [20] 109% | viability, T/C [21] 109% | viability, T/C [22] 82% | viability, T/C [23] 28.6% | viability, T/C [24] 39.6% | viability, T/C [25] 100% | viability, T/C [26] 101% | viability, T/C [27] 107% | viability, T/C [28] 77.4% | viability, T/C [29] 26.2% | viability, T/C [30] 29.8% | viability, T/C [31] 94.4% | viability, T/C [32] 98% | viability, T/C [33] 77.9% | viability, T/C [34] 61.5% | viability, T/C [35] 16.9% | viability, T/C [36] 16.9%
2030 nM: IC50 (second compound 0.1 µM)
2350 nM: IC50 (second compound 0.0316 µM)

Cc1[nH]c2ccccc2c1CCNCc1ccc(/C=C/C(=O)NO)cc1 + CN(C)c1ccc(Nc2c3ccc(NC(=O)CCN4CCCC4)cc3nc3cc(NC(=O)CCN4CCCC4)ccc23)cc1
139 nM: IC50 (second compound 0.0316 µM)
109 nM: IC50 (second compound 1 µM)
inactive: viability, T/C (second compound 0.0316 µM, first compound 0.000999 µM) 106% | viability, T/C (second compound 0.0316 µM, first compound 0.00316 µM) 99% | viability, T/C (second compound 0.0316 µM, first compound 0.00999 µM) 101% | viability, T/C [1] 105% | viability, T/C (second compound 0.0316 µM, first compound 0.0999 µM) 67.5% | viability, T/C (second compound 0.1 µM, first compound 0.000999 µM) 113% | viability, T/C (second compound 0.1 µM, first compound 0.00316 µM) 106% | viability, T/C (second compound 0.1 µM, first compound 0.00999 µM) 107% | viability, T/C [7] 105% | viability, T/C (second compound 0.1 µM, first compound 0.0999 µM) 51% | viability, T/C (second compound 0.316 µM, first compound 0.000999 µM) 104% | viability, T/C (second compound 0.316 µM, first compound 0.00316 µM) 89.3% | viability, T/C (second compound 0.316 µM, first compound 0.00999 µM) 95.3% | viability, T/C [13] 100% | viability, T/C (second compound 0.316 µM, first compound 0.0999 µM) 50.4% | viability, T/C (second compound 1 µM, first compound 0.000999 µM) 93.5% | viability, T/C (second compound 1 µM, first compound 0.00316 µM) 100% | viability, T/C (second compound 1 µM, first compound 0.00999 µM) 114% | viability, T/C [19] 103% | viability, T/C (second compound 1 µM, first compound 0.0999 µM) 53.4% | viability, T/C (second compound 3.16 µM, first compound 0.000999 µM) 96.4% | viability, T/C (second compound 3.16 µM, first compound 0.00316 µM) 101% | viability, T/C (second compound 3.16 µM, first compound 0.00999 µM) 104% | viability, T/C [25] 94.6% | viability, T/C (second compound 3.16 µM, first compound 0.0999 µM) 49.7% | viability, T/C (second compound 10 µM, first compound 0.000999 µM) 90.7% | viability, T/C (second compound 10 µM, first compound 0.00316 µM) 91.7% | viability, T/C (second compound 10 µM, first compound 0.00999 µM) 101% | viability, T/C [31] 97.1% | viability, T/C (second compound 10 µM, first compound 0.0999 µM) 41.8%
101 nM: IC50 (second compound 0.316 µM)
103 nM: IC50 (second compound 0.1 µM)
active: viability, T/C [3] 6.39% | viability, T/C [9] 7.07% | viability, T/C [15] 4.91% | viability, T/C [21] 5.91% | viability, T/C [27] 6.33% | viability, T/C [33] 6.78%
83.7 nM: IC50 (second compound 10 µM)
99.1 nM: IC50 (second compound 3.16 µM)

O=C(NO)c1cnc(N2CCN(S(=O)(=O)c3ccc4ccccc4c3)CC2)nc1 + CN(C)c1ccc(Nc2c3ccc(NC(=O)CCN4CCCC4)cc3nc3cc(NC(=O)CCN4CCCC4)ccc23)cc1
476 nM: IC50 (second compound 10 µM)
603 nM: IC50 (second compound 0.0316 µM)
511 nM: IC50 (second compound 0.1 µM)
553 nM: IC50 (second compound 0.316 µM)
inactive: viability, T/C [1] 111% | viability, T/C [2] 91.6% | viability, T/C [3] 83.1% | viability, T/C [4] 25.2% | viability, T/C [7] 111% | viability, T/C [8] 97.7% | viability, T/C [9] 70.1% | viability, T/C [10] 23.5% | viability, T/C [13] 108% | viability, T/C [14] 126% | viability, T/C [15] 74.3% | viability, T/C [16] 23.4% | viability, T/C [19] 107% | viability, T/C [20] 117% | viability, T/C [21] 73.6% | viability, T/C [22] 24.3% | viability, T/C [25] 105% | viability, T/C [26] 103% | viability, T/C [27] 65.3% | viability, T/C [28] 20.6% | viability, T/C [31] 105% | viability, T/C [32] 92.3% | viability, T/C [33] 65.1% | viability, T/C [34] 24.7%
475 nM: IC50 (second compound 3.16 µM)
554 nM: IC50 (second compound 1 µM)
active: viability, T/C [5] 0.22% | viability, T/C [6] 0.18% | viability, T/C [11] 0.13% | viability, T/C [12] 0.14% | viability, T/C [17] 0.14% | viability, T/C [18] 0.18% | viability, T/C [23] 0.16% | viability, T/C [24] 0.16% | viability, T/C [29] 0.14% | viability, T/C [30] 0.16% | viability, T/C [35] 0.22% | viability, T/C [36] 0.22%
